Measured values taken from US10160747B2, “Compounds and methods for kinase modulation, and indications therefor” (Plexxikon Inc., priority 2016, dated 2018).
Positions count from the first letter of the chain named.

Key:
BaF3-FLT3-ITD-F691L = target: T1, BaF3-FLT3-ITD-F691L (Homo sapiens, UniProt P36888, F691L, cells depend on it, form not given); assay: Cell Assay CS0047: BaF3-FLT3-ITD-F691L CTB; assay type: cell-based, murine; conditions: three day growth assay in the absence of IL3; read-out: Cell Assay: CS0047: BaF3-FLT3-ITD-F691L CTB:IC50
T1 sequence (P36888 with tags, fused parts or gaps INS600HVDFREYEYD/F691L): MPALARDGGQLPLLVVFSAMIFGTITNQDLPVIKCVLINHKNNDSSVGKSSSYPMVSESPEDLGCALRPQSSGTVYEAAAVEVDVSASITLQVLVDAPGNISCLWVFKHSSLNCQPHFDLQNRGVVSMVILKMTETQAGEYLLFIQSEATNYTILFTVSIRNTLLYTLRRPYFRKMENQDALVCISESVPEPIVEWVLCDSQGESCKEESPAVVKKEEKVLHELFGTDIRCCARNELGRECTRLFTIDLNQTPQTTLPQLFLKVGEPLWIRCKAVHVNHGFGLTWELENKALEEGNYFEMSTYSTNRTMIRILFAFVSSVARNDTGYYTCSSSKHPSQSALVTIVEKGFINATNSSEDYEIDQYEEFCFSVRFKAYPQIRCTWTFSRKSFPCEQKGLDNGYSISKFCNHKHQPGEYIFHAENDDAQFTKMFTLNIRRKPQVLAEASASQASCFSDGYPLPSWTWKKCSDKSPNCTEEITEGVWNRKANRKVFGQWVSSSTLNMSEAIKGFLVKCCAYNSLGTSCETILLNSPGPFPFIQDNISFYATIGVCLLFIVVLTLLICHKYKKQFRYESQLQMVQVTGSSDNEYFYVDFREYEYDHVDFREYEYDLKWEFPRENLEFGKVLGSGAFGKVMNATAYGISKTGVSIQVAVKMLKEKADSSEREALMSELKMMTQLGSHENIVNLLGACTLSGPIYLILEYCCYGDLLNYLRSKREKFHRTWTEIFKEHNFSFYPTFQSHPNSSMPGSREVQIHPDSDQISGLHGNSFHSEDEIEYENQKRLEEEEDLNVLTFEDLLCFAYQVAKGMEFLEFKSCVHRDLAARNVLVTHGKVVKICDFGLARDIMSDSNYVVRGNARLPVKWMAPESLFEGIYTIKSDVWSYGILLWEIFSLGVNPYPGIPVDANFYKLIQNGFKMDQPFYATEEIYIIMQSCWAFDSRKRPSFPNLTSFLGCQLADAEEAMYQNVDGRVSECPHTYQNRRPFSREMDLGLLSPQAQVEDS
Description: (§1) The BaF3 assays as developed used to generate the data in Tables 7 and 8 are identical and differ only in minor details in regards to vector design, not biological function. Both introduce the FLT3 gene with MV4-11 based ITD duplications and resistance mutations from an exogenous promoter (MSCV and CMV respectively) in the exact same cell line.
(§2) As a result of the expressed FLT3 protein, the IL3 factor dependent BaF3 cell clones become IL3-factor independent.
(§3) The compounds in Tables 7 and 8 were tested in an identical fashion by incubating such clones in with increasing concentrations. Inhibition of the FLT3 activity by an inhibitor results in factor dependency, which in the absence of IL3 results in cell death in the three day growth assays.

BaF3-FLT3-ITD-D835V = target: T2, BaF3-FLT3-ITD-D835V (Homo sapiens, UniProt P36888, D835V, cells depend on it, form not given); assay: Cell Assay CS0048: BaF3-FLT3-ITD-D835V CTB; assay type: cell-based, murine; conditions: three day growth assay in the absence of IL3; read-out: Cell Assay: CS0048: BaF3-FLT3-ITD-D835V CTB:IC50
T2 sequence (P36888 with tags, fused parts or gaps INS600HVDFREYEYD/D835V): T1 sequence (P36888 with tags, fused parts or gaps INS600HVDFREYEYD/F691L) with L701F, D845V
Description: as §1, §2, §3

FLT3-ITD = target: T3, FLT3-ITD (Homo sapiens, UniProt P36888); assay: FLT3-ITD recombinant enzyme kinase assay (AlphaScreen); assay type: biochemical; conditions: 8 pt; read-out: FLT3_ITD 8 pt: IC50
T3 sequence (P36888 1-993): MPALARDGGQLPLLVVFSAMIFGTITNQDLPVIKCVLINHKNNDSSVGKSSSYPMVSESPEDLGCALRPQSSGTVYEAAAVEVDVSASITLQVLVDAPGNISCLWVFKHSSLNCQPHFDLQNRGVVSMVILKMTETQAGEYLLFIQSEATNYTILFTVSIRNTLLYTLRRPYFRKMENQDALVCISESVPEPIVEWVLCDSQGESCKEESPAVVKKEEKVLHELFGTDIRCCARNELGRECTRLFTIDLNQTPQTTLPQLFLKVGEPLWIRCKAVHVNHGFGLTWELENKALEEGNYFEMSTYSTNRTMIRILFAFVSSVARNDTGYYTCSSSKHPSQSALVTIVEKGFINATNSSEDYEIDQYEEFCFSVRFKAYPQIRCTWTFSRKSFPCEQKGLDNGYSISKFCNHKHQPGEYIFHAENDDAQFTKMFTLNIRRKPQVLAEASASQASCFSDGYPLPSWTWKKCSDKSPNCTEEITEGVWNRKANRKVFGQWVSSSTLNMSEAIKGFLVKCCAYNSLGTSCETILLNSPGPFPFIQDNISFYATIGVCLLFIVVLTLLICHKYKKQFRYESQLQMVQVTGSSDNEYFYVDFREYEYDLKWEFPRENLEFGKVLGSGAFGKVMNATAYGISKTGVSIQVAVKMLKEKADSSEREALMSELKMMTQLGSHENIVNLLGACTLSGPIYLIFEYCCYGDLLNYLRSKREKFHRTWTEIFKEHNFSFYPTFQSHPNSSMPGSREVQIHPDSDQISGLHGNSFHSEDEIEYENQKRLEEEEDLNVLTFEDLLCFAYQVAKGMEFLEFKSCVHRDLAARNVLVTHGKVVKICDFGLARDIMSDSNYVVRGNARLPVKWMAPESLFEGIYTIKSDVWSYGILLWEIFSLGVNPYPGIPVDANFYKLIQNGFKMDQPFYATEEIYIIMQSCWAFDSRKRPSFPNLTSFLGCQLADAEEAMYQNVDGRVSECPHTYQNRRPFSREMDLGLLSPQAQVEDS
Experimental: (§4) In order to determine the effect of compounds on FLT3 catalytic activity, kinase assays using recombinant enzymes and AlphaScreen® technology have been established. The catalytic activity of c-kit activity was also measured to determine selectivity of the compounds. When the kinases are catalytically active, they phosphorylate a biotinylated peptide substrate on tyrosine residues. Using AlphaScreen® technology, the ability of the compounds to affect the catalytic activity of the kinases can be measured quantitatively. The peptide substrate is immobilized by the AlphaScreen® Streptavidin Donor beads and, upon phosphorylation by a tyrosine kinase, can bind to AlphaScreen® Anti-Phosphotyrosine (PY20) Acceptor beads. Upon excitation of these beads with laser light at 680 nm, singlet oxygen is produced. This singlet oxygen is rapidly quenched, unless the AlphaScreen® Anti-Phosphotyrosine (PY20) Acceptor beads are in close proximity, in which case a proximity signal can be measured at 580 nm. In the presence of catalytic activity, there is a very strong proximity signal. Selective kinase inhibitors affect a decrease in this proximity signal through a decrease in tyrosine phosphorylation of the peptide substrate.
(§5) The assay was performed as summarized below.
(§6) Poly (Glu4-Tyr) Peptide, biotin conjugate [Biotin-GG(EEEEY)10EE] (SEQ ID NO: 4)
(§7) Final concentration=30 nM
(§8) Adenosine Triphosphate (ATP)
(§9) Final concentration for IC50 determination=10 μM (FLT3-D835Y or FLT3-ITD) or 100 μM (c-KIT)
(§10) AlphaScreen® Phosphotyrosine (PY20) Assay Kit
(§11) Final concentration=10 μg/mL
(§12) Dilute compounds in DMSO to 20× final concentration.
(§13) Add 1 μL of compound to each well of 384 well reaction plate (Perkin Elmer #6005359).
(§14) Mix enzyme and Poly (Glu4-Tyr) Peptide substrate at 1.33× final concentration in assay buffer.
(§15) Mix ATP at 5× final concentration in assay buffer.
(§16) Add 15 μL enzyme/substrate mixture to the reaction plate.
(§17) Add 4 μL of ATP to the reaction plate.
(§18) Mix Streptavidin Donor beads at 6× final concentration in Stop/Detection buffer.
(§19) Add 5 μL Streptavidin Donor beads to the reaction plate. Centrifuge 1 minute, shake to mix, and incubate at room temperature for 20 minutes.
(§20) Mix Anti-Phosphotyrosine (PY20) Acceptor beads at 6× final concentration in Stop/Detection buffer.
(§21) Add 5 μL Anti-Phosphotyrosine (PY20) beads to the reaction plate.
(§22) Centrifuge 1 minute, shake to mix, and incubate at room temperature for 60 minutes.
(§23) Read plate on Wallac EnVision™ 2103 Multilabel Reader.

FLT3-D835Y = target: T4, FLT3-D835Y (Homo sapiens, UniProt P36888, D835Y); assay: FLT3-D835Y recombinant enzyme kinase assay (AlphaScreen); assay type: biochemical; conditions: 8 pt, GMean
T4 construct: purchased Invitrogen PV3967
T4 sequence (P36888 27-993 D835Y): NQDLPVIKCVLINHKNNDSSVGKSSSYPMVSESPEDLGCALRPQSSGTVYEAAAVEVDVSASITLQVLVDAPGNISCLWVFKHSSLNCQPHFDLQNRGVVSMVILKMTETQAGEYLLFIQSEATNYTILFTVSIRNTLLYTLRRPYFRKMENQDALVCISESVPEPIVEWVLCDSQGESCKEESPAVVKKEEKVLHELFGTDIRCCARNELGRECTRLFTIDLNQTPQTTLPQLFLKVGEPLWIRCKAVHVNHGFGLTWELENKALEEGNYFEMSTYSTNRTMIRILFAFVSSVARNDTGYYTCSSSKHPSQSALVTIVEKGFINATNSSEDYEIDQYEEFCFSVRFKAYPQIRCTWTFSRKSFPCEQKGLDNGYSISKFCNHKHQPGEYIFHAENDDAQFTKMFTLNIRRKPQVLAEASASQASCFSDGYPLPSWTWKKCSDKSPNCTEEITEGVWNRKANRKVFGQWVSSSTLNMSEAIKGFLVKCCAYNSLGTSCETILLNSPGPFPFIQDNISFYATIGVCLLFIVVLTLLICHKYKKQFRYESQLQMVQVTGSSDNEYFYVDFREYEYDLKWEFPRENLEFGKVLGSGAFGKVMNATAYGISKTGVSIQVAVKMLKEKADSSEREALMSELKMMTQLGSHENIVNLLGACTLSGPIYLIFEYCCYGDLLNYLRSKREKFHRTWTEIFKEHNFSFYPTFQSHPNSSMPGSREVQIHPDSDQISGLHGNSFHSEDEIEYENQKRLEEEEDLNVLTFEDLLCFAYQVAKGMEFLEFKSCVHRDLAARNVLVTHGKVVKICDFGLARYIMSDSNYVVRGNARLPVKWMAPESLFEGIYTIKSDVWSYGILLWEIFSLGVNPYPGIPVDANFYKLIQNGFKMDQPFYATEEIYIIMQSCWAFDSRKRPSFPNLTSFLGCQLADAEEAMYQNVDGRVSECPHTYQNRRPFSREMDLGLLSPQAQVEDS
Experimental: as §4, §5, §6, §7, §8, §9, §10, §11, §12, §13, §14, §15, §16, §17, §18, §19, §20, §21, §22, §23

c-KIT = target: T5, c-KIT (Homo sapiens, UniProt P10721); assay: c-KIT recombinant enzyme kinase assay (AlphaScreen); assay type: biochemical; conditions: 100 ATP, 8 pt
T5 construct: purchased Millipore 14-559K
Experimental: as §4, §5, §6, §7, §8, §9, §10, §11, §12, §13, §14, §15, §16, §17, §18, §19, §20, §21, §22, §23

T5 sequence (P10721 26-976): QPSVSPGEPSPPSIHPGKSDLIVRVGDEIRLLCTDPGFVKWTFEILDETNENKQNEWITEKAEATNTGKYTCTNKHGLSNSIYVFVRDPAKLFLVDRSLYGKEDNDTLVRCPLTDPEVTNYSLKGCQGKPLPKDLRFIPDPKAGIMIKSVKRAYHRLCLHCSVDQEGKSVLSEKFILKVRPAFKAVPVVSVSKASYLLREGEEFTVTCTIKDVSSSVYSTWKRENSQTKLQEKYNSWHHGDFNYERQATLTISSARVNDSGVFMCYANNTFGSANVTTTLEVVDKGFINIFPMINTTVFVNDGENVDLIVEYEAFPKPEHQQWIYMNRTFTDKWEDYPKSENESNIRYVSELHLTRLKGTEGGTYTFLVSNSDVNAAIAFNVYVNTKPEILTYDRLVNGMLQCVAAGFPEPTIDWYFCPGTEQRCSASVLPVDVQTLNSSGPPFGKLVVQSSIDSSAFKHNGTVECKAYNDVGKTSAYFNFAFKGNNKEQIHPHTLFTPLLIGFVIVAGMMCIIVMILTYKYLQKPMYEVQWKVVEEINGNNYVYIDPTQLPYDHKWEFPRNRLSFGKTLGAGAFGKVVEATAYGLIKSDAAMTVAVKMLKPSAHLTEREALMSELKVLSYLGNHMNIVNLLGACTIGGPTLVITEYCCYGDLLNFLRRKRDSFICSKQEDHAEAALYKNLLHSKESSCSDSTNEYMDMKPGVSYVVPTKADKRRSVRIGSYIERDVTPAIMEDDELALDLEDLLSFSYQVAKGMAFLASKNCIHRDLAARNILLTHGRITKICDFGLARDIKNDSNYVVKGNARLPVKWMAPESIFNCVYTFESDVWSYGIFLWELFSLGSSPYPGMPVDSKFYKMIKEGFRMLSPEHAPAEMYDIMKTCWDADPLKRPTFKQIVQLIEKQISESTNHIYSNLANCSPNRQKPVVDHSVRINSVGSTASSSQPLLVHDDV

| Structure (SMILES) | GI50 (BaF3-FLT3-ITD-F691L) [nM] | GI50 (BaF3-FLT3-ITD-D835V) [nM] | IC50 (FLT3-ITD) [nM] | IC50 (FLT3-D835Y) [nM] | IC50 (c-KIT) [nM] |
| --- | --- | --- | --- | --- | --- |
| O=C(Cc1ccc(-c2cnc3[nH]c(C4CC4)cc3c2)cc1F)Nc1cncc(C(F)(F)F)c1 [Compound P-0080, 2-(4-(2-cyclopropyl-1H-pyrrolo[2,3-b]pyridin-5-yl)-2-fluorophenyl)-N-(5-(trifluoromethyl)pyridin-3-yl)acetamide] | – | – | 0.1 to 10000 | 0.1 to 10000 | 0.1 to 10000 |
| COc1ncc(NC(=O)Cc2ccc(-c3cnc(Nc4cn[nH]c4)nc3)c(F)c2)cc1C(F)(F)F [Compound P-0028, 2-[3-fluoro-4-[2-(1H-pyrazol-4-ylamino)pyrimidin-5-yl]phenyl]-N-[6-methoxy-5-(trifluoromethyl)-3-pyridyl]acetamide] | – | – | 0.1 to 10000 | 0.1 to 10000 | 0.1 to 10000 |
| COc1ncc(NC(=O)Cc2ccc(-c3cnc4[nH]nc(F)c4c3)cc2)cc1C(F)(F)F [Compound P-0245, 2-[4-(3-fluoro-1H-pyrazolo[3,4-b]pyridin-5-yl)phenyl]-N-[6-methoxy-5-(trifluoromethyl)-3-pyridyl]acetamide] | – | – | – | 0.1 to 10000 | 0.1 to 10000 |

Other lines, results leading:

| GI50 (BaF3-FLT3-ITD-F691L) [nM] | GI50 (BaF3-FLT3-ITD-D835V) [nM] | IC50 (FLT3-ITD) [nM] | IC50 (FLT3-D835Y) [nM] | IC50 (c-KIT) [nM] | Structure (SMILES) |
| --- | --- | --- | --- | --- | --- |
| 45.4 | 94.2 | – | – | – | CCNc1ccc(-c2ccc(CC(=O)Nc3cc(C(C)(C)C)on3)cc2)cn1 |
| – | – | 0.1 to 10000 | – | 0.1 to 10000 | Cn1cc(Nc2ncc(-c3ccc(CC(=O)Nc4cc(F)c(F)cn4)cc3)cn2)cn1 [Compound P-0163, N-(4,5-difluoro-2-pyridyl)-2-[4-[2-[(1-methylpyrazol-4-yl)amino]pyrimidin-5-yl]phenyl]acetamide] |
